Where “and” joins values, the source holds several entries; their conditions need not be identical. Equal entries are not always repeated.
Assays:
[1] = target: T1, AlkB (Escherichia coli, UniProt P05050); experiment: Differential scanning fluorimetry (DSF)-based binding assay, AlkB; conditions: 100 μM compound, 2 μM protein, 50 μM MnCl2, read-out: Tm shift (AlkB)
T1 construct: made in house; host or cells: E. coli BL21 (DE3) Rosetta T1R
Procedure: (§1) Superdex-200 column (GE Healthcare) pre-equilibrated with 20 mM HEPES, pH 7.5, 300 mM NaCl, 10% (v/v) glycerol, 0.5 mM TCEP. […]
(§2) Differential scanning fluorimetry (DSF)-based binding assay
(§3) DSF-based binding assay was performed using a MiniOpticon™ Real-Time PCR Detection System (Bio-Rad), monitoring protein unfolding using SYPRO orange (Invitrogen) according to the reported method.[16] FAM (492 nm) and ROX (610 nm) filters were used for excitation and emission respectively. Reaction mixes contained 2 μM protein, 50 μM MnCl2, 100 μM compounds, 5x SYPRO orange in a final volume of 50 μl. Reagents were prepared in 50mM HEPES buffer, pH 7.5 except metals, which were dissolved as 100 mM stocks in 20 mM HCl, then further diluted in MilliQ water. Compounds tested were prepared in 100% DMSO and added such that the final concentration of DMSO was not more than 1% v/v of assay […]
(§4) mix. Fluorescence readings were taken every 1°C in the range 25-95°C, with the temperature increased linearly by 1°C min -1. The software provided was used to perform global minimum subtraction. The inflection point, representing Tm, was calculated by fitting the Boltzmann equation to the sigmoidal curves obtained; data were processed using GraphPad Prism 6.0™.
(§5) The Tm shift caused by the addition of small molecules/ fragments was determined by subtraction of the “reference” Tm (protein incubated with metal and 1% v/v DMSO) from the Tm obtained in the presence of the compound. The assay was performed in triplicate for each inhibitor, with standard deviations typically < 1°C. […]

[2] = target: T2, ALKBH2 (Homo sapiens, UniProt Q6NS38); experiment: Differential scanning fluorimetry (DSF)-based binding assay, ALKBH2; conditions: DSF, 100 μM compound, 2 μM protein, 50 μM MnCl2; read-out: Tm shift (ALKBH2)
T2 construct: made in house; host or cells: E. coli BL21 (DE3)
T2 sequence (Q6NS38 56-258): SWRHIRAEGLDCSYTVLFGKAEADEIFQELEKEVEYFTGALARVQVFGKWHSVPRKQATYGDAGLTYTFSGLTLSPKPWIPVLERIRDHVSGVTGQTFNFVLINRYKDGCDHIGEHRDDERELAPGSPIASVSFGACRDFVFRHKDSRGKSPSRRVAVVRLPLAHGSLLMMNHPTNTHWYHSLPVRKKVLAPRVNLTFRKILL
Procedure: as §1, §2, §3, §4, §5

[3] = target: T3, ALKBH3 (Homo sapiens, UniProt Q96Q83); experiment: Differential scanning fluorimetry (DSF)-based binding assay, ALKBH3; conditions: DSF, 100 μM compound, 2 μM protein, 50 μM MnCl2; read-out: Tm shift (ALKBH3)
T3 construct: Human ALKBH3 (encompassing residues 1- 286); purchased ProSpec-Tany Technogene Ltd, Israel
T3 sequence (Q96Q83 1-286): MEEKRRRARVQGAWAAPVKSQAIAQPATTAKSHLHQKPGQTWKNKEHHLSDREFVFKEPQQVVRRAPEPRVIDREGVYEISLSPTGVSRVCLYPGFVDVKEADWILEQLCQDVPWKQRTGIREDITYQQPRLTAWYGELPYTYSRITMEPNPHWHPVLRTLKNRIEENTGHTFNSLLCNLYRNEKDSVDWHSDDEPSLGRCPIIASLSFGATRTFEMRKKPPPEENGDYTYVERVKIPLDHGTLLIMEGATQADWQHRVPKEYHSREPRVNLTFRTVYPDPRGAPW
Procedure: as §1, §2, §3, §4, §5

[4] = target: T4, ALKBH5 (Homo sapiens, UniProt Q6P6C2); experiment: Differential scanning fluorimetry (DSF)-based binding assay, ALKBH5; conditions: 100 μM compound, 2 μM protein, 50 μM MnCl2, read-out: Tm shift (ALKBH5)
T4 construct: pNIC28-Bsa4 ALKBH5 (encompassing residues 66-292); made in house; host or cells: E. coli BL21 (DE3) Rosetta T1R
T4 sequence (Q6P6C2 66-292): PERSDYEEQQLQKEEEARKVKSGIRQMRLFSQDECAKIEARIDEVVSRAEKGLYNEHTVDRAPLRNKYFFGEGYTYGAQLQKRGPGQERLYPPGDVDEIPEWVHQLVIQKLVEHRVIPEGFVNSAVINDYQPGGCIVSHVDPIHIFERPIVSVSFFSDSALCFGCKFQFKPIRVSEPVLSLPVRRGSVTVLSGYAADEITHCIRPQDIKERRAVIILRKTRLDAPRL
Procedure: as §1, §2
DSF-based binding assay was performed using a MiniOpticon™ Real-Time PCR Detection System (Bio-Rad), monitoring protein unfolding using SYPRO orange (Invitrogen) according […]
to the reported method.[16] […]
and emission respectively. Reaction mixes contained 2 μM protein, 50 μM MnCl2, 100 μM […]
Reagents were prepared in 50mM
HEPES buffer, pH 7.5 except metals, which were dissolved as 100 mM stocks in 20 mM HCl, then further diluted in MilliQ water. Compounds tested were prepared in 100% DMSO and added such that the final concentration of DMSO was not more than 1% v/v of assay […]
increased linearly by 1°C min -1. The software provided was used to perform global minimum subtraction. The inflection point, representing Tm, was calculated by fitting the Boltzmann equation to the sigmoidal curves obtained; data were processed using GraphPad Prism 6.0™.
The Tm shift caused by the addition of small molecules/ fragments was determined by subtraction of the “reference” Tm (protein incubated with metal and 1% v/v DMSO) from the Tm obtained in the presence of the compound. […]

[5] = target: T1, AlkB; experiment: HPLC-based inhibition assay for AlkB, m1A-ssDNA substrate; assay type: biochemical
Procedure: (§6) HPLC-based inhibition assays for AlkB and ALKBH2
(§7) The assay was modified from previously reported method.[18] A 15-mer m1A-ssDNA substrate with the sequence 5’-AAAGCAG(m1A)ATTCGAA-3 ’ (Yale University, W.M.
(§8) Keck Foundation Biotechnology Resource Laboratory) was used in this inhibition assay. The assay was performed in triplicate for each inhibitor, in a final reaction volume of 25 µL.
(§9) Reaction consisted of AlkB (1 µM) or ALKBH2 (2 µM), 2OG (50 µM), (NH4)2Fe(SO4)2·6H2O (50 µM), L-ascorbate (2 mM), m1A-ssDNA substrate (10 µM), in 50 mM HEPES buffer, pH 7.5, and inhibitor at various concentrations (final DMSO concentration not more than 1% v/v of assay mix). The reaction was incubated at 4°C for 10 min, before analysis on a bio-inert HPLC system. The m1A-ssDNA substrate and the corresponding demethylated product were separated using a Dionex DNAPac PA200 anion-exchange column (8 µm, […]) with a gradient of 98% solvent A (50 mM sodium citrate buffer, pH 5.5) to 65% solvent B (50 mM sodium citrate buffer, pH 5.5 with 1.25 M sodium chloride) over 18 min, at a flow rate of 1 mL/min at 40°C. The UV detection wavelength was set at 266 nm. The percentage inhibition was estimated based on the peak areas of the m1A-ssDNA substrate and the corresponding demethylated product. For IC50 determination, eight different concentrations of inhibitors were used (0, 1, 3, 10, 30, 100, 300, […]
(§10) different inhibitor concentrations, using nonlinear regression, with normalized dose-response fit on GraphPad Prism 6.0™. […]

[6] = target: T2, ALKBH2; experiment: HPLC-based inhibition assay for ALKBH2, m1A-ssDNA substrate; assay type: biochemical
Procedure: as §6, §7, §8, §9, §10

T1 sequence (P05050 12-216): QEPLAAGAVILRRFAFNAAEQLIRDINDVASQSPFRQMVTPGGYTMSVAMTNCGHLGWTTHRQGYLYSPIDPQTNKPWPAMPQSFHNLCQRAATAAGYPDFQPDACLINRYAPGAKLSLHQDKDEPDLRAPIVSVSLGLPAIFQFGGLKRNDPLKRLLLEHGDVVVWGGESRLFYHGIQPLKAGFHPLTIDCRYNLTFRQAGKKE

Compound	ΔTm at 100 µM [1] [°C]	ΔTm at 100 µM [2] [°C]	ΔTm at 100 µM [3] [°C]	ΔTm at 100 µM [4] [°C]	IC50 [5] [µM]	IC50 [6]
O=C(O)C=CC(=O)NNC(=O)c1cc(Cc2ccccc2)ccn1 [Compound 22]	3.2	3.7	3.5	2.8	67.1	39.9 µM
O=C(O)/C=C/C(=O)NNC(=O)c1cccnc1 [Compound 21]	1.8	2	2.5	2.1	169	152 µM and > 100 µM
O=C(O)/C=C/C(=O)NNC(=O)c1ccccn1 [Compound 23]	1.5	2.3	2	2.1	181	127 µM
O=C(O)/C=C/C(=O)NNC(=O)c1cnccc1Cc1ccccc1 [Compound 12]	4.5	4.9	3.2	2.7	33.5	25.9 µM

From PMC5424463, “A strategy based on nucleotide specificity leads to a subfamily-selective and cell-active inhibitor of N ^6-methyladenosine demethylase FTO” (Chemical Science, 2014)
